Data reported in US6054435A, “6-O-substituted macrolides having antibacterial activity” (priority 1999, dated 2000).
Values after ≈ are worked out from the molar mass of the structure shown.

Experiments:
Assay in all cases: in vitro antibacterial activity (MIC), agar dilution
Type in all cases: cell-based
[1] = test system: Enterococcus faecium ATCC 8043; conditions: organism code II; BHI agar, 35-37° C., 20 to 24 hours; unit assumed
In short: (§1)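 Endpoint: lowest concentration with no growth, slight haze or sparsely isolated colonies at the inoculum spot, judged against a compound-free BHI control. Strains were replicator-inoculated at 1:100 (1:10 for Streptococcus and other slow growers).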

[2] = test system: Staphylococcus aureus CMX 642A; conditions: organism code DD; BHI agar, 35-37° C., 20 to 24 hours; unit assumed
In short: as §1

[3] = test system: Staphylococcus aureus 1775; conditions: organism code GG; BHI agar, 35-37° C., 20 to 24 hours; unit assumed
In short: as §1

[4] = test system: Streptococcus bovis A-5169; conditions: organism code JJ; BHI agar, 35-37° C., 20 to 24 hours; unit assumed
In short: as §1

[5] = test system: Staphylococcus aureus ATCC 6538P; conditions: organism code AA; BHI agar, 35-37° C., 20 to 24 hours; unit assumed
In short: as §1

[6] = test system: Streptococcus pyogenes 930; conditions: organism code MM; BHI agar, 35-37° C., 20 to 24 hours; unit assumed
In short: as §1

[7] = test system: Staphylococcus aureus A5177; conditions: organism code BB; BHI agar, 35-37° C., 20 to 24 hours; unit assumed
In short: as §1

[8] = test system: Nocardia Asteroides ATCC9970; conditions: organism code VV; BHI agar, 35-37° C., 20 to 24 hours; unit assumed
In short: as §1

[9] = test system: Staphylococcus aureus NCTC10649M; conditions: organism code EE; BHI agar, 35-37° C., 20 to 24 hours; unit assumed
In short: as §1

[10] = test system: Mycobacterium smegmatis ATCC 114; conditions: organism code UU; BHI agar, 35-37° C., 20 to 24 hours; unit assumed
In short: as §1

[11] = test system: Micrococcus luteus ATCC 9341; conditions: organism code OO; BHI agar, 35-37° C., 20 to 24 hours; unit assumed
In short: (§2)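 Agar dilution on BHI agar with twelve successive compound dilutions; plates inoculated by Steers replicator with 1:100 culture dilutions (1:10 for slow growers such as Streptococcus). MIC is the lowest concentration giving no growth, slight haze or sparse colonies versus a drug-free control.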

[12] = test system: Streptococcus Pneumonia GYR 1171; conditions: organism code YY; BHI agar, 35-37° C., 20 to 24 hours; unit assumed
In short: as §1

[13] = test system: Staphylococcus aureus A-5278; conditions: organism code CC; BHI agar, 35-37° C., 20 to 24 hours; unit assumed
In short: as §1

Escherichia coli SS = conditions: organism code RR; BHI agar, 35-37° C., 20 to 24 hours; unit assumed
In short: as §1

[14] = test system: Streptococcus Pneumonia 5979; conditions: organism code ZZ; BHI agar, 35-37° C., 20 to 24 hours; unit assumed
In short: as §1

[15] = test system: Streptococcus Pneumonia ATCC6303; conditions: organism code XX; BHI agar, 35-37° C., 20 to 24 hours; unit assumed
In short: as §1

[16] = test system: Streptococcus agalactiae CMX 508; conditions: organism code KK; BHI agar, 35-37° C., 20 to 24 hours; unit assumed
In short: as §1

[17] = test system: Micrococcus luteus ATCC 4698; conditions: organism code PP; BHI agar, 35-37° C., 20 to 24 hours; unit assumed
In short: as §2

[18] = test system: Staphylococcus aureus CMX 553; conditions: organism code FF; BHI agar, 35-37° C., 20 to 24 hours; unit assumed
In short: as §1

[19] = test system: Haemophilis Influenzae DILL AMP R; conditions: organism code WW; BHI agar, 35-37° C., 20 to 24 hours; unit assumed
In short: as §1

Escherichia coli JUHL = conditions: organism code QQ; BHI agar, 35-37° C., 20 to 24 hours; unit assumed
In short: as §1

[20] = test system: Streptococcus pyogenes EES61; conditions: organism code LL; BHI agar, 35-37° C., 20 to 24 hours; unit assumed
In short: as §1

[21] = test system: Streptococcus Pneumonia 5649; conditions: organism code ZZA; BHI agar, 35-37° C., 20 to 24 hours; unit assumed
In short: as §1

Candida albicans CCH 442 = conditions: organism code TT; BHI agar, 35-37° C., 20 to 24 hours; unit assumed
In short: as §1

[22] = test system: Streptococcus pyogenes PIU 2548; conditions: organism code NN; BHI agar, 35-37° C., 20 to 24 hours; unit assumed
In short: as §1

[23] = test system: Staphylococcus epidermidis 3519; conditions: organism code HH; BHI agar, 35-37° C., 20 to 24 hours; unit assumed
In short: as §1

Escherichia coli DC-2 = conditions: organism code SS; BHI agar, 35-37° C., 20 to 24 hours; unit assumed
In short: as §1

Compound | MIC [1] [µg/mL] | MIC [2] [µg/mL] | MIC [3] [µg/mL] | MIC [4] [µg/mL] | MIC [5] [µg/mL] | MIC [6] [µg/mL] | MIC [7] [µg/mL] | MIC [8] [µg/mL] | MIC [9] [µg/mL] | MIC [10] [µg/mL] | MIC [11] [µg/mL] | MIC [12] [µg/mL] | MIC [13] [µg/mL] | MIC (Escherichia coli SS) [µg/mL] | MIC [14] [µg/mL] | MIC [15] [µg/mL] | MIC [16] [µg/mL] | MIC [17] [µg/mL] | MIC [18] [µg/mL] | MIC [19] [µg/mL] | also measured
CC[C@H]1OC(=O)[C@H](C)C(=O)[C@H](C)[C@@H](O[C@@H]2O[C@H](C)C[C@H](N(C)C)[C@H]2O)[C@](C)(OC/C=C/c2ncc(-c3cccnc3)s2)C[C@@H](C)C(=O)[C@H](C)[C@H]2NC(=O)O[C@@]21C [Example 54] | 0.02 (≈ 0.025 µM) | 0.05 (≈ 0.0626 µM) | > 100 | ≤ 0.005 | 0.05 (≈ 0.0626 µM) | 100 (≈ 125 µM) | 0.05 (≈ 0.0626 µM) | 0.01 (≈ 0.0125 µM) | 0.1 (≈ 0.125 µM) | 3.1 (≈ 3.88 µM) | 0.01 (≈ 0.0125 µM) | 0.03 (≈ 0.0375 µM) | > 100 | 0.2 (≈ 0.25 µM) | 4 (≈ 5.01 µM) | 0.03 (≈ 0.0375 µM) | ≤ 0.005 | 0.05 (≈ 0.0626 µM) | 0.05 (≈ 0.0626 µM) | 2 (≈ 2.5 µM) | MIC (Escherichia coli JUHL): 1.56 µg/mL (≈ 1.95 µM); MIC [20]: ≤ 0.005 µg/mL; MIC [21]: 0.25 µg/mL (≈ 0.313 µM); MIC (Candida albicans CCH 442): > 100 µg/mL; MIC [22]: 0.1 µg/mL (≈ 0.125 µM); MIC [23]: 0.05 µg/mL (≈ 0.0626 µM); MIC (Escherichia coli DC-2): 25 µg/mL (≈ 31.3 µM)
CC[C@H]1OC(=O)[C@H](C)C(=O)[C@H](C)[C@@H](O[C@@H]2O[C@H](C)C[C@H](N(C)C)[C@H]2O)[C@](C)(OCC#Cc2ccc(-c3cccc(C(F)(F)F)c3)s2)C[C@@H](C)C(=O)[C@H](C)[C@H]2NC(=O)O[C@@]21C [Example 19] | 0.39 (≈ 0.452 µM) | 0.39 (≈ 0.452 µM) | 12.5 (≈ 14.5 µM) | 0.05 (≈ 0.0579 µM) | 0.39 (≈ 0.452 µM) | 3.1 (≈ 3.59 µM) | 0.39 (≈ 0.452 µM) | 0.39 (≈ 0.452 µM) | 0.39 (≈ 0.452 µM) | 0.39 (≈ 0.452 µM) | 0.2 (≈ 0.232 µM) | 0.125 (≈ 0.145 µM) | 25 (≈ 29 µM) | 3.1 (≈ 3.59 µM) | 4 (≈ 4.63 µM) | 0.125 (≈ 0.145 µM) | 0.05 (≈ 0.0579 µM) | 0.39 (≈ 0.452 µM) | 0.39 (≈ 0.452 µM) | 4 (≈ 4.63 µM) | MIC (Escherichia coli JUHL): > 100 µg/mL; MIC [20]: 0.1 µg/mL (≈ 0.116 µM); MIC [21]: 1 µg/mL (≈ 1.16 µM); MIC (Candida albicans CCH 442): > 100 µg/mL; MIC [22]: 0.39 µg/mL (≈ 0.452 µM); MIC [23]: 0.39 µg/mL (≈ 0.452 µM); MIC (Escherichia coli DC-2): > 100 µg/mL
CC[C@H]1OC(=O)[C@H](C)C(=O)[C@H](C)[C@@H](O[C@@H]2O[C@H](C)C[C@H](N(C)C)[C@H]2O)[C@](C)(OC/C=C/c2cnc(-c3cccs3)s2)C[C@@H](C)C(=O)[C@H](C)[C@H]2NC(=O)O[C@@]21C [Example 57] | 0.05 (≈ 0.0622 µM) | 0.05 (≈ 0.0622 µM) | 100 (≈ 124 µM) | 0.02 (≈ 0.0249 µM) | 0.1 (≈ 0.124 µM) | 25 (≈ 31.1 µM) | 0.05 (≈ 0.0622 µM) | 0.05 (≈ 0.0622 µM) | 0.2 (≈ 0.249 µM) | 0.2 (≈ 0.249 µM) | 0.02 (≈ 0.0249 µM) | ≤ 0.004 | > 100 | 0.39 (≈ 0.485 µM) | 0.5 (≈ 0.622 µM) | ≤ 0.004 | 0.01 (≈ 0.0124 µM) | 0.05 (≈ 0.0622 µM) | 0.1 (≈ 0.124 µM) | 4 (≈ 4.97 µM) | MIC (Escherichia coli JUHL): 100 µg/mL (≈ 124 µM); MIC [20]: 0.01 µg/mL (≈ 0.0124 µM); MIC [21]: 0.25 µg/mL (≈ 0.311 µM); MIC (Candida albicans CCH 442): > 100 µg/mL; MIC [22]: 0.1 µg/mL (≈ 0.124 µM); MIC [23]: 0.05 µg/mL (≈ 0.0622 µM); MIC (Escherichia coli DC-2): 100 µg/mL (≈ 124 µM)
CC[C@H]1OC(=O)[C@H](C)C(=O)[C@H](C)[C@@H](O[C@@H]2O[C@H](C)C[C@H](N(C)C)[C@H]2O)[C@](C)(OC/C=C/c2cnc(-c3cncs3)s2)C[C@@H](C)C(=O)[C@H](C)[C@H]2NC(=O)O[C@@]21C [Example 60] | 0.02 (≈ 0.0248 µM) | 0.05 (≈ 0.0621 µM) | > 100 | ≤ 0.005 | 0.1 (≈ 0.124 µM) | 3.1 (≈ 3.85 µM) | 0.05 (≈ 0.0621 µM) | 0.01 (≈ 0.0124 µM) | 0.1 (≈ 0.124 µM) | 1.56 (≈ 1.94 µM) | ≤ 0.005 | ≤ 0.004 | > 100 | 0.2 (≈ 0.248 µM) | 1 (≈ 1.24 µM) | ≤ 0.004 | 0.01 (≈ 0.0124 µM) | 0.02 (≈ 0.0248 µM) | 0.05 (≈ 0.0621 µM) | 4 (≈ 4.97 µM) | MIC (Escherichia coli JUHL): 50 µg/mL (≈ 62.1 µM); MIC [20]: 0.01 µg/mL (≈ 0.0124 µM); MIC [21]: 0.25 µg/mL (≈ 0.311 µM); MIC (Candida albicans CCH 442): > 100 µg/mL; MIC [22]: 0.2 µg/mL (≈ 0.248 µM); MIC [23]: 0.1 µg/mL (≈ 0.124 µM); MIC (Escherichia coli DC-2): 100 µg/mL (≈ 124 µM)
CC[C@H]1OC(=O)[C@H](C)C(=O)[C@H](C)[C@@H](O[C@@H]2O[C@H](C)C[C@H](N(C)C)[C@H]2O)[C@](C)(OCC#Cc2ccc(-c3cccc(NC(C)=O)c3)s2)C[C@@H](C)C(=O)[C@H](C)[C@H]2NC(=O)O[C@@]21C [Example 20] | 0.05 (≈ 0.0587 µM) | 0.1 (≈ 0.117 µM) | > 100 | ≤ 0.005 | 0.1 (≈ 0.117 µM) | 6.2 (≈ 7.28 µM) | 0.05 (≈ 0.0587 µM) | 0.1 (≈ 0.117 µM) | 0.1 (≈ 0.117 µM) | 1.56 (≈ 1.83 µM) | 0.02 (≈ 0.0235 µM) | 0.015 (≈ 0.0176 µM) | > 100 | 0.2 (≈ 0.235 µM) | 0.5 (≈ 0.587 µM) | 0.15 (≈ 0.176 µM) | ≤ 0.005 | 0.1 (≈ 0.117 µM) | 0.1 (≈ 0.117 µM) | 4 (≈ 4.69 µM) | MIC (Escherichia coli JUHL): > 100 µg/mL; MIC [20]: 0.02 µg/mL (≈ 0.0235 µM); MIC [21]: 0.25 µg/mL (≈ 0.293 µM); MIC (Candida albicans CCH 442): > 100 µg/mL; MIC [22]: 0.2 µg/mL (≈ 0.235 µM); MIC [23]: 0.1 µg/mL (≈ 0.117 µM); MIC (Escherichia coli DC-2): 100 µg/mL (≈ 117 µM)
